From article PMC6852045 (International Journal of Cosmetic Science, 2019)

Biological target: T1, peroxisome proliferator-activated receptor-α (PPARα) (Homo sapiens, UniProt Q07869)
T1 sequence (Q07869 196-468 limits assumed): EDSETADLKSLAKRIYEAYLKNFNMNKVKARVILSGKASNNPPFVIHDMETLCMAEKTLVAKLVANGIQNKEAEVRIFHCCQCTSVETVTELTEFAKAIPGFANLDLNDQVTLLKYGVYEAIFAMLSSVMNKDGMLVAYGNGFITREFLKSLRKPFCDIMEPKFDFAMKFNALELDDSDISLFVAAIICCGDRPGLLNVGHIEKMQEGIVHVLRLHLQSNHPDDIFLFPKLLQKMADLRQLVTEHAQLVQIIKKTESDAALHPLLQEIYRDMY
Assay: GAL4-PPARα LBD one-hybrid luciferase transactivation assay in HEK293 cells
Format: cell-based

- EC50: 5.43 µM
SMILES: CCCCCCCC[C@@H](O)CCCCCCCCC(=O)O [HSA, (R)‐10‐hydroxyoctadecanoic acid]
